Reference: publication PMC12449371, “The role of unsaturated fatty acids in modulating human butyrylcholinesterase activity: insights from kinetics and molecular docking” (Naunyn-Schmiedeberg's Archives of Pharmacology, 2025)
Entries after “also recorded” stand apart in the source; their conditions may differ. Read-outs that look alike come from different tables or passages of the source.

Columns and labels:
[1] = molecular target: T1, human BChE (Homo sapiens, UniProt P06276); test: IC50 determination, modified 96-microtiter plate Ellman assay; type: biochemical; settings: purified human serum BChE, 0.5 mM BTCh, 50 mM MOPS pH 7.4, 37 °C, Table 2 head prints no unit, µM
T1 construct: purification process was performed using 0 Rh (−) human blood serum from the Hacettepe Hospital blood bank; from tissue; host or cells: human blood serum (0 Rh(−), Hacettepe Hospital blood bank)
T1 sequence (P06276 29-602): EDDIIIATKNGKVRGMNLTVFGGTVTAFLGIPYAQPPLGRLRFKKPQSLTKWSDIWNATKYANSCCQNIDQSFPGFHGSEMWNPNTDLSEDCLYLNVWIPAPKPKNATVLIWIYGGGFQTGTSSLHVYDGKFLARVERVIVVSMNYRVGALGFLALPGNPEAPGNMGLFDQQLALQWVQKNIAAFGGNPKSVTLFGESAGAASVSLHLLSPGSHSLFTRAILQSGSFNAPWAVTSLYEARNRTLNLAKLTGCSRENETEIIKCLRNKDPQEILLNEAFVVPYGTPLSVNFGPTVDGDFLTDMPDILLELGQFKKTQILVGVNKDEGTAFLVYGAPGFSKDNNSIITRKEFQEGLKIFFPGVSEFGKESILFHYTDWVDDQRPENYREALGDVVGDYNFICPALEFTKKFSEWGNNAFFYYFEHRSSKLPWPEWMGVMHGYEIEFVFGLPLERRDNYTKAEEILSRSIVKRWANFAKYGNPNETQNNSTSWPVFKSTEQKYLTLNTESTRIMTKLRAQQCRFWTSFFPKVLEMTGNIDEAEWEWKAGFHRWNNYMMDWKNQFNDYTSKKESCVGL
Description: (§1) The butyrylcholinesterase purification process was performed using 0 Rh (−) human blood serum from the Hacettepe Hospital blood bank, as described in a previous study (Gok et al. [2023]). BChE was subjected to acid dialysis followed by DEAE-Trisacryl M ion-exchange chromatography under pH 5.5 conditions. The pooled active fractions from Trisacryl M chromatography were dialyzed to adjust neutral buffer pH 7.4 and transferred to procainamide-Sepharose 4B chromatography. The BChE enzyme was bound to the procainamide column, which was then washed with 25 mM phosphate buffer at pH 7.4. The BChE was eluted from the column with a linear gradient of 0.2–0.8 M NaCl in 25 mM potassium phosphate buffer pH 7.4, followed by dialysis. […] Silver staining (Blum et al. [1987]) and the Karnovsky-Roots technique (Karnovsky and Roots [1964]) were used to visualize gels that had been labeled for activity and protein, […].
The IC₅₀ was determined using the modified 96-microtiter plate Ellman assay (George and Abernethy [1983]), using a total volume of 200 µL. […] The unsaturated fatty acids used for the test were dissolved in DMSO and then the working solutions were sonicated in a reaction buffer for 30 s, followed by a further 30 s. The fatty acid solutions with different final concentrations of 10–7500 µM were added to the wells. Subsequently, 50 mM MOPS buffer (pH 7.4) and 0.7 µg of purified BChE enzyme were added. The plate was incubated in the absence of light with a plate shaker at 37 °C for 10 min. Measurements were initiated by adding a final concentration of 0.25 mM DTNB (ε412, DTNB = 14.2 mM^−1 cm^−1) and 0.5 mM butyrylthiocholine (BTCh). The mixture of 1% DMSO without the BTCh substrate was used as the reagent blank. The absorbance readings were recorded at a wavelength of 412 nm for a period of 10 min using the Spectramax M2 microplate reader (Molecular Devices, USA). The activity without fatty acids was set as 100% control, while all activities with fatty acids were compared to this control. IC₅₀ values were determined using GraphPad Prism 8.4 software by plotting the percentage of BChE activity against the fatty acid concentration. Each test was performed at least four times and average values were reported as final results.

[2] = molecular target: T1, human BChE; test: Inhibition kinetics, Ellman method with varying BTCh substrate; type: biochemical; settings: for Ki: BTCh as substrate (1.0-0.05 mM), three fatty acid concentrations; for Inhibition type: Lineweaver-Burk analysis, BTCh as substrate
Description: as §1
Evaluation of BChE activity was performed according to the Ellman method (George and Abernethy [1983]) with a minor modification in a 96-well microtiter plate assay. The fatty acids oleic acid, linoleic acid, α-LA, and arachidonic acid used in the assay were dissolved in DMSO. The working solutions were then sonicated in a reaction buffer for 30 + 30 s. Based on previous experimental results, three concentrations of oleic acid, linoleic acid, α-LA, and arachidonic acid were chosen: 200–750 µM, 500–2500 µM, 50–250 µM, and 100–300 µM, respectively. This was to clarify the inhibitory mechanisms for the fatty acids. In the presence of these fatty acids, BChE activity was measured at eight progressively lower concentrations (1.0–0.05 mM) of the BTCh substrate. The experimental procedure involved incubation of a solution of the fatty acid with BChE enzyme (0.7 µg), 50 mM MOPS buffer pH 7.4, and 0.25 mM DTNB in the absence of light at 37 °C for 5 min. The reaction was initiated and monitored for 10 min at 412 nm in kinetic mode after addition of the substrate. The identical solution was run with buffer instead of fatty acids as a control and all assays were performed in triplicate. Enzyme activity was expressed in milliunits (mU), where 1 mU corresponds to the hydrolysis of 1 nmol of BTCh per minute at room temperature.
Enzyme kinetics data was analyzed and graphs were plotted using GraphPad Prism 8.42. The kinetic parameters and the enzyme-substrate relationship were fitted to the Michaelis-Menten model using nonlinear regression.

[3] = molecular target: AChE; parameters: method as in Akay et al. [2023]; settings: ref Akay et al. [2023]; cited from earlier work

CCCCCCCC/C=C\CCCCCCCC(=O)O [Oleic acid, oleic acid]
IC50 ([1]; read-out: IC50): 2370 µM | Ki [2]: lowest Ki value | Ki ([2]; read-out: Ki): 321 µM | Inhibition type [2]: noncompetitively | Inhibition type ([2]; listed as Oleic acid (18:1)): Noncompetitive

CC/C=C\C/C=C\C/C=C\CCCCCCCC(=O)O [α-Linolenic acid, alpha-linolenic acid]
IC50 ([1]; read-out: IC50): 5810 µM | Ki ([2]; read-out: Ki): 667 µM | Inhibition type ([2]; listed as α-LA): noncompetitively; also recorded: noncompetitive inhibition type | Inhibition type ([2]; listed as α-Linolenic acid (18:3)): Noncompetitive | noncompetitive inhibitory constants (Ki) on AChE, rank in words [3]: lowest Ki

CCCCCCCCCCCCCCCCCCCC(=O)O [eicosanoic acid]
AChE inhibition in words [3]: strongly inhibits

CCCCC/C=C\C/C=C\C/C=C\C/C=C\CCCC(=O)O [Arachidonic acid, arachidonic acid]
IC50 [1]: strongest inhibitory activity | IC50 ([1]; read-out: IC50): 611 µM | Ki ([2]; read-out: Ki): 465 µM | Inhibition type ([2]; listed as AA): uncompetitive type inhibition | Inhibition type ([2]; listed as Arachidonic acid (20:4)): Uncompetitive | inhibitory effect on AChE (IC50), rank in words [3]: strongest inhibitory effect

CCCCC/C=C\C/C=C\CCCCCCCC(=O)O [Linoleic acid, linoleic acid]
IC50 ([1]; read-out: IC50): 5910 µM | Ki ([2]; read-out: Ki): 1400 µM | Inhibition type [2]: Noncompetitive inhibition | Inhibition type ([2]; listed as LA): noncompetitive inhibition type | Inhibition type ([2]; listed as Linoleic acid (18:2)): Noncompetitive
